Experimental data taken from US20240115705A1, “Regulation of Butyrophilin subfamily 3 member A1 (BTN3A1, CD277)” (The J. Gladstone Institutes, a testamentary trust …, priority 2021, published 2024).
Like-named read-outs stand apart in the source and are kept apart here.

Tested on: Daudi-Cas9 cells
Experiment: Cancer-T cell co-culture genome-wide CRISPR knockout screen (Vγ9Vδ2 T cell killing)
Type: cell-based, human
[1] = MAGeCK sgRNA test, co-culture screen
[2] = log-fold change of sgRNA, surviving cells after co-culture vs baseline, MAGeCK
[3] = sgRNA abundance in surviving Daudi-Cas9 KO cells after 24 hours Vγ9Vδ2 T cell co-culture with zoledronate, MAGeCK
[4] = sgRNA enriched (TRUE) or depleted (FALSE) after T cell co-culture

| Substance | score [1] | LFC [2] | treat mean [3] | high_in_treatment [4] | LFC | high_in_treatment | score | treat mean |
| --- | --- | --- | --- | --- | --- | --- | --- | --- |
| MRPL28_TTCCCCCCGAATCCCAGCG: library sgRNA targeting MRPL28 (as printed in the source, key not given here) | 7.2159 | −3.2156 | 469.77 | FALSE |  |  |  |  |
| MRPL55_CGACTCTACCCCGTGCTGC: library sgRNA targeting MRPL55 (as printed in the source, key not given here) | 6.305 | −4.7404 | 104.65 | FALSE |  |  |  |  |
| MRPS26_CCCCCGGCCGCACACCTGA: library sgRNA targeting MRPS26 (as printed in the source, key not given here) | 7.3571 | −3.3597 | 431.96 | FALSE |  |  |  |  |
| MTG2_ATGAGTACATTGCCGCGCT: library sgRNA targeting MTG2 (listed as DNA, chemistry not fully specified) | 6.5262 | −4.2612 | 163.79 | FALSE |  |  |  |  |
| N6AMT1_AGCAGAAACGTGTCCTCCG: library sgRNA targeting N6AMT1 (listed as DNA, chemistry not fully specified) | 6.0901 | −3.683 | 224.71 | FALSE |  |  |  |  |
| NAPG_GCAAAAGATGCCTGCCTGA: library sgRNA targeting NAPG (listed as DNA, chemistry not fully specified) | 6.3569 | −6.2732 | 33.086 | FALSE |  |  |  |  |
| NLRC5_AGTCACGTGTCCTACCGTC: library sgRNA targeting NLRC5 (listed as DNA, chemistry not fully specified) | 6.4705 | 1.0275 | 5262.4 | TRUE |  |  |  |  |
| NUDCD3_TCACCACGTGCTTGGGTAC: library sgRNA targeting NUDCD3 (listed as DNA, chemistry not fully specified) | 6.5243 | −3.6651 | 262.75 | FALSE |  |  |  |  |
| NUP37_GCCAGCACACACTCATGCC: library sgRNA targeting NUP37 (listed as DNA, chemistry not fully specified) | 5.9656 | −1.9711 | 1092.8 | FALSE |  |  |  |  |
| OIP5_CGACTCGGTGCACCTCGCC: library sgRNA targeting OIP5 (as printed in the source, key not given here) | 6.3045 | −7.255 | 16.543 | FALSE |  |  |  |  |
| OIP5_TATTCTACCCATGCTGCCC: library sgRNA targeting OIP5 (as printed in the source, key not given here) | 6.4136 | −5.8943 | 45.034 | FALSE |  |  |  |  |
| PHB_GACCGATTCCGTGGAGTGC: library sgRNA targeting PHB (as printed in the source, key not given here) | 6.0021 | −3.7742 | 202.44 | FALSE |  |  |  |  |
| PNLIPRP1_GCCCCTGAAAATTCTCCCC: library sgRNA targeting PNLIPRP1 (chemistry not given here) |  |  |  |  | −2.1878 | FALSE | 7.0018 | 1182.9 |
| PRMT1_TGGTGCTGGACGTCGGCTC: library sgRNA targeting PRMT1 (listed as DNA, chemistry not fully specified) | 6.7595 | −8.6196 | 6.7801 | FALSE |  |  |  |  |
| PSMG4_CACCTGCGCAACCTCGCCG: library sgRNA targeting PSMG4 (listed as DNA, chemistry not fully specified) | 6.1467 | −3.4412 | 279.92 | FALSE |  |  |  |  |
| RAB7A_CGGTTCCAGTCTCTCGGTG: library sgRNA targeting RAB7A (listed as DNA, chemistry not fully specified) | 6.2219 | −4.046 | 175.17 | FALSE |  |  |  |  |
| RFXAP_ACAGGGTTGCATCACTAGC: library sgRNA targeting RFXAP (listed as DNA, chemistry not fully specified) | 10.037 | 1.6018 | 4884.6 | TRUE |  |  |  |  |
| RFXAP_ACGAGGAGACTCACTCGGG: library sgRNA targeting RFXAP (listed as DNA, chemistry not fully specified) | 6.9897 | 2.2103 | 1110.2 | TRUE |  |  |  |  |
| RFXAP_AGACACTTCGGACCCTCCG: library sgRNA targeting RFXAP (listed as DNA, chemistry not fully specified) | 10.922 | 1.5343 | 6378.3 | TRUE |  |  |  |  |
| RFXAP_CGTTAGGTACCTGTGCGAA: library sgRNA targeting RFXAP (listed as DNA, chemistry not fully specified) | 7.0414 | 1.5428 | 2592.9 | TRUE |  |  |  |  |
| RPP21_GCACTCACGTCTCTGGCGC: library sgRNA targeting RPP21 (as printed in the source, key not given here) | 6.2576 | −7.9412 | 9.6859 | FALSE |  |  |  |  |
| RPP25L_TGGCTCTGGGTCGGTTGGA: library sgRNA targeting RPP25L (as printed in the source, key not given here) | 6.0209 | −7.7316 | 9.1906 | FALSE |  |  |  |  |
| RPP38_CGATTCTCTCACTGAGCCG: library sgRNA targeting RPP38 (as printed in the source, key not given here) | 7.8058 | −3.1996 | 558.49 | FALSE |  |  |  |  |
| SAE1_TGCTTCTTGTCGGCTTGAA: library sgRNA targeting SAE1 (listed as DNA, chemistry not fully specified) | 7.1879 | −7.4222 | 19.337 | FALSE |  |  |  |  |
| SARS2_GCACGGTGCTCACCACGTC: library sgRNA targeting SARS2 (chemistry not given here) |  |  |  |  | −3.8724 | FALSE | 6.2052 | 200.19 |
| SCO1_CACCCCCGTGGTCGCAGAA: library sgRNA targeting SCO1 (listed as DNA, chemistry not fully specified) | 10.413 | −3.6001 | 714.32 | FALSE |  |  |  |  |
